Results from PubChem BioAssay (NCI).
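Step 1: Grow cells in 96-well plates. Step 2: Expose to compound for 48 hours at 5 concentrations. Step 3: Interpolate endpoints linearly; if unreached, use highest concentration. The concentration for full growth arrest is given as TGI.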

What was measured:
Assay in all cases: growth of human tumour cells (NCI), 48 h
786-0 renal = tested on: 786-0 renal
A549 NSCLC = tested on: A549 NSCLC
ACHN renal = tested on: ACHN renal
BT-549 breast = tested on: BT-549 breast
CAKI-1 renal = tested on: CAKI-1 renal
CCRF-CEM leukemia = tested on: CCRF-CEM leukemia
COLO 205 colon = tested on: COLO 205 colon
DU-145 prostate = tested on: DU-145 prostate
EKVX NSCLC = tested on: EKVX NSCLC
HCT-116 colon = tested on: HCT-116 colon
HCT-15 colon = tested on: HCT-15 colon
HL-60(TB) leukemia = tested on: HL-60(TB) leukemia
HOP-62 NSCLC = tested on: HOP-62 NSCLC
HOP-92 NSCLC = tested on: HOP-92 NSCLC
HT29 colon = tested on: HT29 colon
IGROV1 ovarian = tested on: IGROV1 ovarian
K-562 leukemia = tested on: K-562 leukemia
KM12 colon = tested on: KM12 colon
LOX IMVI melanoma = tested on: LOX IMVI melanoma
M14 melanoma = tested on: M14 melanoma
MCF7 breast = tested on: MCF7 breast
MDA-MB-231 breast = tested on: MDA-MB-231 breast
MDA-MB-435 = tested on: MDA-MB-435
MDA-N = tested on: MDA-N
MOLT-4 leukemia = tested on: MOLT-4 leukemia
NCI-H23 lung = tested on: NCI-H23 lung
NCI-H460 lung = tested on: NCI-H460 lung
NCI/ADR-RES ovarian = tested on: NCI/ADR-RES ovarian
OVCAR-3 ovarian = tested on: OVCAR-3 ovarian
OVCAR-4 ovarian = tested on: OVCAR-4 ovarian
OVCAR-5 ovarian = tested on: OVCAR-5 ovarian
OVCAR-8 ovarian = tested on: OVCAR-8 ovarian
PC-3 prostate = tested on: PC-3 prostate
RPMI-8226 leukemia = tested on: RPMI-8226 leukemia
RXF 393 renal = tested on: RXF 393 renal
SF-295 CNS = tested on: SF-295 CNS
SF-539 CNS = tested on: SF-539 CNS
SK-MEL-2 melanoma = tested on: SK-MEL-2 melanoma
SK-MEL-28 melanoma = tested on: SK-MEL-28 melanoma
SK-MEL-5 melanoma = tested on: SK-MEL-5 melanoma
SK-OV-3 ovarian = tested on: SK-OV-3 ovarian
SN12C renal = tested on: SN12C renal
SNB-19 CNS = tested on: SNB-19 CNS
SNB-75 CNS = tested on: SNB-75 CNS
SR leukemia = tested on: SR leukemia
SW-620 colon = tested on: SW-620 colon
T-47D breast = tested on: T-47D breast
TK-10 renal = tested on: TK-10 renal
U251 CNS = tested on: U251 CNS
UACC-257 melanoma = tested on: UACC-257 melanoma
UACC-62 melanoma = tested on: UACC-62 melanoma
UO-31 renal = tested on: UO-31 renal
A498 renal = tested on: A498 renal
HCC-2998 colon = tested on: HCC-2998 colon
MALME-3M melanoma = tested on: MALME-3M melanoma
NCI-H226 lung = tested on: NCI-H226 lung
NCI-H522 lung = tested on: NCI-H522 lung
SF-268 CNS = tested on: SF-268 CNS

O=c1oc2c(Cl)cc(Cl)cc2cc1C1=CSC2=NCCN12
TGI (786-0 renal): > 100 µM
TGI (A549 NSCLC): > 100 µM
TGI (ACHN renal): > 100 µM
TGI (BT-549 breast): 74.4 µM
TGI (CAKI-1 renal): > 100 µM
TGI (CCRF-CEM leukemia): > 100 µM
TGI (COLO 205 colon): > 100 µM
TGI (DU-145 prostate): > 100 µM
TGI (EKVX NSCLC): > 100 µM
TGI (HCT-116 colon): > 100 µM
TGI (HCT-15 colon): > 100 µM
TGI (HL-60(TB) leukemia): > 100 µM
TGI (HOP-62 NSCLC): > 100 µM
TGI (HOP-92 NSCLC): > 100 µM
TGI (HT29 colon): > 100 µM
TGI (IGROV1 ovarian): > 100 µM
TGI (K-562 leukemia): > 100 µM
TGI (KM12 colon): > 100 µM
TGI (LOX IMVI melanoma): > 100 µM
TGI (M14 melanoma): > 100 µM
TGI (MCF7 breast): 88.9 µM
TGI (MDA-MB-231 breast): > 100 µM
TGI (MDA-MB-435): > 100 µM
TGI (MDA-N): > 100 µM
TGI (MOLT-4 leukemia): > 100 µM
TGI (NCI-H23 lung): > 100 µM
TGI (NCI-H460 lung): > 100 µM
TGI (NCI/ADR-RES ovarian): > 100 µM
TGI (OVCAR-3 ovarian): 92.9 µM
TGI (OVCAR-4 ovarian): > 100 µM
TGI (OVCAR-5 ovarian): > 100 µM
TGI (OVCAR-8 ovarian): > 100 µM
TGI (PC-3 prostate): > 100 µM
TGI (RPMI-8226 leukemia): > 100 µM
TGI (RXF 393 renal): > 100 µM
TGI (SF-295 CNS): > 100 µM
TGI (SF-539 CNS): > 100 µM
TGI (SK-MEL-2 melanoma): > 100 µM
TGI (SK-MEL-28 melanoma): > 100 µM
TGI (SK-MEL-5 melanoma): 88.8 µM
TGI (SK-OV-3 ovarian): > 100 µM
TGI (SN12C renal): > 100 µM
TGI (SNB-19 CNS): > 100 µM
TGI (SNB-75 CNS): > 100 µM
TGI (SR leukemia): > 100 µM
TGI (SW-620 colon): > 100 µM
TGI (T-47D breast): > 100 µM
TGI (TK-10 renal): > 100 µM
TGI (U251 CNS): > 100 µM
TGI (UACC-257 melanoma): > 100 µM
TGI (UACC-62 melanoma): > 100 µM
TGI (UO-31 renal): > 100 µM

O=C(NNC(=O)c1csc(NC(=S)NC2CCCCC2)n1)c1ccccc1
TGI (786-0 renal): 31 µM
TGI (A498 renal): 76.2 µM
TGI (A549 NSCLC): 54.1 µM
TGI (ACHN renal): 43.9 µM
TGI (BT-549 breast): 46.5 µM
TGI (CAKI-1 renal): 39.5 µM
TGI (CCRF-CEM leukemia): 68.6 µM
TGI (COLO 205 colon): 20.1 µM
TGI (DU-145 prostate): 51.3 µM
TGI (EKVX NSCLC): 28.4 µM
TGI (HCC-2998 colon): 32.2 µM
TGI (HCT-116 colon): 15.9 µM
TGI (HCT-15 colon): 13 µM
TGI (HOP-62 NSCLC): 32.5 µM
TGI (HT29 colon): 21.3 µM
TGI (IGROV1 ovarian): 17.7 µM
TGI (KM12 colon): 28.8 µM
TGI (LOX IMVI melanoma): 22 µM
TGI (M14 melanoma): 35.4 µM
TGI (MALME-3M melanoma): 43.2 µM
TGI (MCF7 breast): > 100 µM
TGI (MDA-MB-231 breast): 30.8 µM
TGI (MDA-MB-435): 33.1 µM
TGI (MDA-N): 31.1 µM
TGI (MOLT-4 leukemia): 44.9 µM
TGI (NCI-H226 lung): 49.5 µM
TGI (NCI-H23 lung): 40.6 µM
TGI (NCI-H522 lung): 28.4 µM
TGI (NCI/ADR-RES ovarian): 50.8 µM
TGI (OVCAR-3 ovarian): 16.4 µM
TGI (OVCAR-4 ovarian): > 100 µM
TGI (OVCAR-5 ovarian): 76.3 µM
TGI (OVCAR-8 ovarian): 59.2 µM
TGI (PC-3 prostate): 48.9 µM
TGI (RPMI-8226 leukemia): 69.9 µM
TGI (SF-268 CNS): > 100 µM
TGI (SF-295 CNS): 51.9 µM
TGI (SF-539 CNS): 31.6 µM
TGI (SK-MEL-2 melanoma): 45 µM
TGI (SK-MEL-5 melanoma): 19.7 µM
TGI (SK-OV-3 ovarian): 34.2 µM
TGI (SN12C renal): 22.5 µM
TGI (SNB-75 CNS): > 100 µM
TGI (SR leukemia): > 100 µM
TGI (SW-620 colon): 29.5 µM
TGI (T-47D breast): 17.3 µM
TGI (TK-10 renal): 85.6 µM
TGI (U251 CNS): 20.4 µM
TGI (UACC-257 melanoma): 27.8 µM
TGI (UACC-62 melanoma): 23.9 µM
TGI (UO-31 renal): 28.3 µM
